Laboratory results as given in US6417393B1, “Phenyl derivatives containing an acidic group, their preparation and their use as chloride channel blockers” (Neurosearch A/S, priority 1996, dated 2002).

Tests used:
[1] = test system: erythrocyte chloride channels; experiment: Cl- conductance (GCl) from concomitant measurements of conductive Cl- netfluxes and membrane potentials in suspensions of normal erythrocytes; type: cell-based, Human; conditions: suspension of normal erythrocytes; read-out: IC50-value for block of GCl
From the text: (§1) The compounds of the present invention are potent blockers of chloride channels in normal as well as sickle cell erythrocytes.
(§2) All dose-response experiments were therefore performed by concomitant measurements of conductive netfluxes of Cl^− (JCl) and membrane potentials (Vm) in suspensions of erythrocytes (Bennekou, P. and Christophersen, P. (1986), Flux ratio of Valinomycin—Mediated K^+ Fluxes across the Human Red Cell Membrane in the presence of the Protronophore CCCP. J. Membrane Biol. 93, 221-227. ). The membrane Cl^−-conductances were calculated by the following equation (Hodgkin, A. L. and Huxley, A. F. (1952) The components of membrane conductance in the giant axon of loligo. J. Physiol. Lond. 116, 449-472): [formula]
(§3) where F is the Faraday constant and ECl is the Nernst potential for the Cl-ion.

[2] = test system: chloride channels of sickle cell erythrocytes; experiment: Cl- conductance (GCl) in oxygenated and deoxygenated homozygoteous sickle cell erythrocytes; type: cell-based, Human; conditions: oxygenated as well as deoxygenated homozygoteous sickle cell erythrocytes; compared with normal erythrocytes
From the text: as §1, §2, §3

erythrocytes = experiment: Valinomycin induced cell volume loss (relative volume of packed cells); type: cell-based; conditions: valinomycin for 5 min
Experimental: Inducing a massive water and salt loss (KCI) by addition the K^+-ionophore valinomycin to the suspension for 5 min reduced the cell volume by 26%.

sickle erythrocytes = experiment: K+ flux from sickle erythrocytes, basal and deoxygenation induced (extracellular K+-concentration vs time); type: cell-based; conditions: 10 μM; oxygenated sickle erythrocytes
From the text: Deoxygenation induced permeability increases of sickle cells were estimated by measuring the extracellular K^+-concentration vs time. […] The K^+ flux from oxygenated sickle erythrocytes was 2-3 times higher than from normal erythrocytes and these fluxes was accelerated 4-8 times upon deoxygenation.

mice = experiment: Toxicity to mice; type: in vivo; conditions: up to 150 mg/kg i.p. and i.v.
Experimental: N-(3-Trifluoromethylphenyl)-N′-(2-carboxyphenyl) urea was non-toxic to mice at concentrations up to 150 mg/kg i.p. and i.v.

In the case of `O=C(Nc1cccc(C(F)(F)F)c1)Nc1ccccc1C(=O)O` [3′-Trifluoromethylphenyl-2-carboxyphenyl Urea], the IC50 [1] is reported as 600 nM, the “block of GCl from sickle cell erythrocytes” value [2] is reported as “equipotently blocked” and the IC50 (erythrocytes; Erythrocyte, 5 min, read-out: IC50-value for reduction of valinomycin induced volume loss) is reported as 1200 nM. For the same molecule, the “cell volume loss remaining in presence of compound” value (erythrocytes; volume loss without compound 26%) was 7%, the “basal K+-flux from sickle erythrocytes” value (sickle erythrocytes) was “normalised” and the toxicity to mice (mice) was “non-toxic”.
